Test results reported in patent US8852876B2, “Label free biosensors and cells” (Corning Incorporated, priority 2008, dated 2014).
Entries after “also recorded” stand apart in the source; their conditions may differ. Where two headings read alike, the source gives them in different places. Where no end group is shown, it is not given here.

Legend:
[1] = system: endogenous GPCRs in A431 cells; test: DMR optical biosensor profiling of GPCR agonists; format: cell-based, human; conditions: for Dose-dependent switching of optical signature: fully quiescent A431 cells; for Class of optical signature (DMR) induced by agonist: quiescent A431, first class = Gq-type, second = Gs-type, third = Gi-type, fourth = no significant DMR
[2] = system: EGF-induced response of quiescent A431 cells; test: Effect of compound pretreatment on EGF-induced DMR response; format: cell-based, human; conditions: for Effect of pre-treatment on EGF-induced P-DMR and N-DMR signals: starved A431 cells, 8 nM EGF, 30-minute pretreatment, GH 0.5 ng/ml, PD98059 0.1 mM, PP1 1 μM, wortmannin 0.1 μM, DIP 50 μM
Procedure: Both A431 and CHO-K1 cells were grown in Dulbecco's modified Eagle's medium (DMEM) supplemented with 10% fetal calf serum, 100 μg/ml penicillin, and 100 μg/ml streptomycin. For cell culture, certain numbers of cells (2×10^5 to 1×10^6), either A431 or CHO-K1, were suspended in […] medium were placed in each well of a 96 well Corning Epic Biosensor microplate, and were cultured at 37° C. in air/5% CO2 for certain time until the cell density reached ˜90% and above (unless specified). The resulted cells were termed as “profilerating” cells. The “quiescent” cells were obtained by culturing the profilerating cells of desired confluencies with a medium containing no or little (˜0.1% fetal bovine serum (FBS)) for at least 16 hours.
During the assays, the cells in 100 μl medium were subject to two 25 μl HBSS buffer containing 20 mM HEPES, pH 7.4, each separated by at least 15 minutes before 50 μl stimulus-containing solution was applied. During all these steps, a parallel angular interrogation system was used to monitor the real time kinetics of cellular responses. For compound effect studies, a modified protocol was used which starts with 50 μl medium, and subject to sequential treatment: 25 μl HBSS buffer twice (each separated by at least 15 minutes), 50 μl compound solution and finally 50 μl stimulus-containing solution.

[3] = quiescent A431 cells, 32 nM EGF

CC(CCCCC(=O)Nc1ccc(C(F)(F)F)cc1)NCCc1cnc[nH]1 (stereo not drawn) [HTMT]
Dose-dependent switching of optical signature [1]: At low doses (<˜40 nM), HTMT dose-dependently resulted in a typical Gi-type optical signature; also recorded: became almost steady (i.e., no obvious DMR); also recorded: switching to a typical Gs-type optical signature

COc1cccc(-c2cc(=O)c3ccccc3o2)c1N [PD98059]
Effect of pre-treatment on EGF-induced P-DMR and N-DMR signals [2]: significantly reduced both the binding and DMR signals

interleukin-8
Class of optical signature (DMR) induced by agonist [1]: did not exhibited any significant DMR signals

C[C@@H](NC(=O)[C@@H](N)Cc1ccc(O)cc1)C(=O)NCC(=O)N(C)[C@@H](Cc1ccccc1)C(=O)NCCO [DAMGO]
Class of optical signature (DMR) induced by agonist [1]: did not exhibited any significant DMR signals

neurokinin A (HKTDSFVGLM; ends and bridges not checked; UniProt P20366 98-107, looked up) [agonist, TACR2]
Class of optical signature (DMR) induced by agonist [1]: did not exhibited any significant DMR signals

interferon-γ-inducible protein-10 [IP-10]
Class of optical signature (DMR) induced by agonist [1]: did not exhibited any significant DMR signals

CNC[C@H](O)c1ccc(O)c(O)c1 [epinephrine]
Class of optical signature (DMR) induced by agonist [1]: second class of optical signatures

Cc1cc(C(C)(C)C)c(O)c(C)c1CC1=NCCN1 [oxymetazoline]
Class of optical signature (DMR) induced by agonist [1]: did not exhibited any significant DMR signals

CC[C@H](C)[C@H](NC(=O)[C@@H]1CCCN1C(=O)[C@@H](NC(=O)[C@@H](N)Cc1ccccc1)C(C)C)C(=O)N[C@@H](Cc1ccccc1)C(=O)N[C@H](C(=O)N[C@@H](Cc1ccc(O)cc1)C(=O)NCC(=O)N[C@@H](CCC(=O)O)C(=O)N[C@@H](CC(C)C)C(=O)N[C@@H](CCC(N)=O)C(=O)N[C@@H](CCCNC(=N)N)C(=O)N[C@@H](CCSC)C(=O)N[C@@H](CCC(N)=O)C(=O)N[C@@H](CCC(=O)O)C(=O)N[C@@H](CCCCN)C(=O)N[C@@H](CCC(=O)O)C(=O)N[C@@H](CCCNC(=N)N)C(=O)N[C@@H](CC(N)=O)C(=O)N[C@@H](CCCCN)C(=O)NCC(=O)N[C@@H](CCC(N)=O)C(=O)O)[C@@H](C)O [motilin]
Class of optical signature (DMR) induced by agonist [1]: did not exhibited any significant DMR signals

CCCCCCOC(=O)[C@]1(O)C[C@@H]2O[C@@]1(C)n1c3ccccc3c3c4c(c5c6ccccc6n2c5c31)C(=O)NC4 [KT 5720]
Effect of pretreatment on 32 nM EGF-induced response [2, 3]: little effect on the response

growth hormone
Effect of pre-treatment on EGF-induced P-DMR and N-DMR signals [2]: significantly reduced both the binding and DMR signals

C[S+]([O-])c1ccc(-c2nc(-c3ccncc3)c(-c3ccc(F)cc3)[nH]2)cc1 (stereo not drawn) [SB203580]
Effect of pretreatment on 32 nM EGF-induced response [2]: only led to a partial attenuation

COC(=O)[C@@]1(OC)C[C@H]2O[C@]1(C)n1c3ccccc3c3c4c(c5c6ccccc6n2c5c31)C(=O)N(C)C4 [KT5823]
Effect of pretreatment on 32 nM EGF-induced response [2, 3]: little effect on the response

glucagon
Class of optical signature (DMR) induced by agonist [1]: did not exhibited any significant DMR signals

neuropeptide Y
Class of optical signature (DMR) induced by agonist [1]: did not exhibited any significant DMR signals

CC(C)NCC(O)c1ccc(O)c(O)c1 (stereo not drawn) [isoprenternol]
Class of optical signature (DMR) induced by agonist [1]: second class of optical signatures

R(−)-rolipram
Effect of pretreatment on 32 nM EGF-induced response [2, 3]: None of these inhibitors had an obvious effect on the responses

CCCCC/C=C\C/C=C\C/C=C\C/C=C\CCCC(=O)NCCO [anandamide]
Class of optical signature (DMR) induced by agonist [1]: did not exhibited any significant DMR signals

CN(C(=O)CCCOc1ccc2[nH]c(=O)ccc2c1)C1CCCCC1 [cilostamide]
Effect of pretreatment on 32 nM EGF-induced response [2, 3]: None of these inhibitors had an obvious effect on the responses

NC[C@@H]1O[C@H](C23CC4CC(CC(C4)C2)C3)Cc2c1ccc(O)c2O [A-77636]
Class of optical signature (DMR) induced by agonist [1]: did not exhibited any significant DMR signals

Brc1c(NC2=NCCN2)ccc2nccnc12 [UK14304]
Class of optical signature (DMR) induced by agonist [1]: did not exhibited any significant DMR signals

Oc1cc2c(cc1O)C(c1ccccc1)CNCC2 (stereo not drawn) [SKF38392]
Class of optical signature (DMR) induced by agonist [1]: did not exhibited any significant DMR signals

dynorphin A (YGGFLRRIRPKLKWDNQ; Dynorphin A(1-17); UniProt P01213 207-223, looked up) [agonist, OPRM1 and OPRK1]
Class of optical signature (DMR) induced by agonist [1]: did not exhibited any significant DMR signals

N#CC(=C(/N)Sc1ccccc1N)/C(C#N)=C(\N)Sc1ccccc1N [U0126]
Effect of pretreatment on 32 nM EGF-induced response [2]: significantly compressed the amplitudes of both the P-DMR and N-DMR signals with a delayed time τ

Cc1[nH]c(=O)c(C#N)cc1-c1ccncc1 [milrinone]
Effect of pretreatment on 32 nM EGF-induced response [2, 3]: None of these inhibitors had an obvious effect on the responses

apelin 1-17
Class of optical signature (DMR) induced by agonist [1]: did not exhibited any significant DMR signals

oleoyl-L-α-lysophosphatidic acid [LPA]
Dose-dependent switching of optical signature [1]: typical Gi-type optical signature at low doses of LPA; also recorded: switched to Gq-type optical signature at high doses of LPA | Class of optical signature (DMR) induced by agonist [1]: third class of optical signatures

endothelin-1 (CSCSSLMDKECVYFCHLDIIW; ends and bridges not checked; cysteine pairing not given here; UniProt P05305 53-73, looked up) [agonist, EDNRA and EDNRB]
Class of optical signature (DMR) induced by agonist [1]: did not exhibited any significant DMR signals

substance P (RPKPQQFFGLM; ends and bridges not checked; UniProt P20366 58-68, looked up) [agonist, TACR1]
Class of optical signature (DMR) induced by agonist [1]: did not exhibited any significant DMR signals

neuromedin N (IPYIL; Neuromedin N; UniProt P30990 144-148, looked up) [agonist, NTSR1]
Class of optical signature (DMR) induced by agonist [1]: did not exhibited any significant DMR signals

Oc1ccc(-c2nc(-c3ccc(F)cc3)c(-c3ccncc3)[nH]2)cc1 [SB20219]
Effect of pretreatment on 32 nM EGF-induced response [2, 3]: only led to a partial attenuation

apelin 1-13
Class of optical signature (DMR) induced by agonist [1]: did not exhibited any significant DMR signals

CCCCOc1cc(CC2CNC(=O)N2)ccc1OC (stereo not drawn) [Ro 20-1724]
Effect of pretreatment on 32 nM EGF-induced response [2, 3]: None of these inhibitors had an obvious effect on the responses

Angiotensin II (DRVYIHPF; Angiotensin-2; UniProt P01019 25-32, looked up) [agonist, AGTR1]
Class of optical signature (DMR) induced by agonist [1]: did not exhibited any significant DMR signals

CN1CCC(c2c[nH]c3ccc(O)cc23)CC1 [BRL 54443]
Class of optical signature (DMR) induced by agonist [1]: did not exhibited any significant DMR signals
